For one series, the system named is 17-90 RNA. As to the kind of experiment: In-line probing of 17-90 RNA (preQ1-II aptamer). Type of series: binding, Streptococcus pneumoniae R6. Particulars: for binding by 17-90 RNA: compound concentrations up to 1 mM; for Kd: read-out: apparent KD.
For series [1], the target named is 110 Vc2 RNA (Vc2 aptamer, GEMM RNA). As to the kind of experiment: In-line probing of 110 Vc2 RNA (cyclic di-GMP aptamer). The class given is binding, Vibrio cholerae. Here is the method:
In-line probing assays were performed using methods similar to those described previously (Soukup 1999). Briefly, 5′^32P-labeled RNAs (˜[…] for cyclic di-GMP KD analysis, ˜5 nM for all other analyses) were incubated at 23° C. for approximately 40 hours in 20 mM MgCl2, 100 mM KCl, and 50 mM Tris (pH 8.3 at 23° C.) with the indicated compounds. RNA cleavage products were separated by denaturing 10% PAGE, visualized using a Phosphorimager (Molecular Dynamics), and analyzed using SAFA v1.1 software (Das 2005) or ImageQuant (Molecular Dynamics). SAFA software was used to normalize to correct for differences in the amounts of RNA loaded to each lane and to determine the intensity of each band.
To determine the KD of 110 Vc2 for cyclic di-GMP, in-line probing was conducted as described above with various concentrations of cyclic di-GMP. Due to the use of an exceptionally low concentration of radiolabeled 110 Vc2 RNA, the samples loaded were supplemented with additional unlabeled RNA that had been separately subjected to in-line probing. […] Dissociation constants (KD) were determined using ImageQuant software (Molecular Dynamics) to compare individual band intensities at sites of structural modulation assuming that there was no modulation in the absence of ligand and complete modulation in the presence of the highest ligand concentration tested. […]

The nature of series [2]: Kinetics of cyclic di-GMP degradation under in-line probing conditions. Type of series: physicochemical. To be noted: in-line probing buffer, pH 8.3 at 23° C., 100 mM KCl, 20 mM MgCl2. On the procedure:
A solution of 500 μM cyclic di-GMP was incubated in the presence of in-line probing buffer (50 mM Tris-HCl [pH 8.3 at 23° C.], 100 mM KCl, 20 mM MgCl2) for varying amounts of time. The reactions were initiated by the addition of cyclic di-GMP and quenched when a 10 μL aliquot was injected onto an Agilent Technologies 1200 series HPLC equipped with an Agilent Zorbax Oligo column (5 μM, 6.2 mm×80 mm). The compounds were eluted using a gradient mobile phase composed of 95% 0.1 M NaHPO4 [pH 6.0 at 23° C.] and 5% acetonitrile to 100% 1 M NaCl. The absorbance was monitored at 254 nm. A rate constant for cyclic di-GMP was established by plotting the natural logarithm of the fraction of the cyclic di-GMP remaining uncleaved versus time, wherein the negative slope of the resulting line reflects the rate constant.

Series [3] addresses Escherichia coli PilZ protein domain (Escherichia coli, UniProt P76010). To be noted: Ryjenkov 2006; cited from earlier work.
The test system of series [4] is 68 metH RNA. As to the kind of experiment: In-line probing of 68 metH RNA (SAH aptamer). The class given is binding, Dechloromonas aromatica. To be noted: for modulation of the RNA structure: concentrations as high as 1 mM. On the procedure:
iii. In-Line Probing Analysis In-line probing assays were carried out essentially as previously described (Soukup and Breaker, 1999). 5′^32P-labeled RNAs were incubated at room temperature for approximately 40 h in 10 μl volumes containing 50 mM Tris-HCl (pH 8.3 at 25° C.), 20 mM MgCl2, 100 mM KCl, and included test compounds at the concentrations indicated. Spontaneous cleavage products were separated by denaturing 10% PAGE, visualized using a Phosphorlmager (Molecular Dynamics), and quantified using SAFA v1.1 software (Das et al., 2005). The amount of RNA cleaved at each nucleotide position was obtained from SAFA analysis, which automatically determines reference nucleotide positions with invariant levels of spontaneous cleavage to correct for different amounts loaded in each lane. Individual band intensities at each modulated site were summed and normalized to obtain values for the fraction of RNA that was structurally modulated, assuming that there was no modulation in the absence of ligand and maximal modulation in the presence of the highest concentration of ligand. Values for the apparent dissociation constant (KD) were determined by fitting the plot of the fraction modulated (F), versus the ligand concentration, [L], at all three indicated modulation sites to the equation F [L]/([L]+KD) using SigmaPlot 9 software (Systat Software, Inc.).

In series [5] the test system is 68 metH RNA. The experiment in a line: Equilibrium dialysis of [3H]SAM with 68 metH RNA. Type of series: binding, Dechloromonas aromatica. On the procedure: (§1) The chambers were separated by a permeable membrane with a molecular weight cut-off of 5000 Daltons.
(§2) Equilibrium dialysis was performed by delivering 20 μl samples to each side of a Dispo-Equilibrium Biodialyzer (The Nest Group, Inc., Southboro, Mass., USA) wherein the separation between chambers is maintained by a dialysis membrane with a 5000 Dalton molecular weight cut-off. One chamber contained a buffer solution comprised of 100 mM Tris-HCl (pH 8.3 at 24° C.), 20 mM MgCl2, 100 mM KCl, plus 100 nM [^3H]SAM.
A general note: In equilibrium dialysis only unbound substance equilibrates across the membrane.

The target of series [6] is 132 Sc RNA (SAM-IV riboswitch). The experiment in a line: In-line probing of 132 Sc RNA (SAM-IV). The class given is binding, Streptomyces coelicolor. From the text:
DNA corresponding to the aptamer in the pEZ35 plasmid (above) was amplified by PCR with primers 5′-[…]

For series [7], the target named is SAM-I riboswitch 124 yitJ. The experiment in a line: SAM-I riboswitch binding (literature). To be noted: ratio of the KD for the compound to that for SAM.
The target of series [8] is SAM-II aptamer 156 metA. To be noted: Corbino et al., 2005; read-out: apparent KD for SAM; cited from earlier work.
The target in series [9] is SAM-I riboswitch 124 yitJ. To be noted: calculated previously (Lim et al. 2006); read-out: KD [compound] (nM) SAM-I; cited from earlier work.
The test system of series [10] is SAM-II aptamer 156 metA. To be noted: 10 µM RNA, 100 nM [3H]SAM. On the procedure:
as §1, §2

For series [11], the system named is wild-type 149 moaA RNA (Moco RNA)-lacZ reporter fusion. The experiment in a line: β-galactosidase reporter assay of 149 moaA RNA fusion. Type of series: cell-based, Escherichia coli. To be noted: modC deletion strain, LB supplemented with 10 mM compound. From the text: These sequences were cloned into a translational fusion plasmid upstream of, and in-frame with β-galactosidase reporter gene. The fusion was placed under the control of a constitutively active lacUV5 promoter to eliminate the effects of upstream anaerobic- and molybdate-dependent promoter regulation that naturally restricts expression of the moaA operon. This series of plasmids was placed in a strain of E. coli wherein the moaA gene was deleted. The resulting transformants were transformed with a plasmid containing the moaABCDE operon under the control of an arabinose-inducible and glucose-repressible promoter (Guzman et al., 1995). These doubly transformed strains enabled us to determine the role of the 149 moaA RNA on reporter gene expression when Moco concentrations are either high or low.
To determine whether molybdate is critical for gene regulation by 149 moaA RNA, a modC knockout strain of E. coli was conducted to eliminate high affinity molybdate transporter function. This strain was then transformed with the moaABCDE inducible expression plasmid and the wild-type and mutant 149 moaA reporter fusion plasmids.
To measure gene expression from lacZ in the wild-type and mutant reporter strains of E. coli, the cells were grown in a 14 mL culture vial with shaking overnight at 37° C. in 3 mL of LB with supplementation as indicated. […]
In general terms: A reporter such as luciferase makes a cellular process visible.

Molecules are shown by their SMILES. Where “and” joins values, the source holds several entries; their conditions need not be identical. Equal entries are not always repeated. Some results are limits rather than exact numbers.

Here are results for 14 compounds from patent publication US20100286082A1, “RIBOSWITCHES AND METHODS AND COMPOSITIONS FOR USE OF AND WITH RIBOSWITCHES” (Yale University, priority 2007, published 2010).

Escherichia coli PilZ protein domain, sequence (P76010 whole entry, the tested form may be a part): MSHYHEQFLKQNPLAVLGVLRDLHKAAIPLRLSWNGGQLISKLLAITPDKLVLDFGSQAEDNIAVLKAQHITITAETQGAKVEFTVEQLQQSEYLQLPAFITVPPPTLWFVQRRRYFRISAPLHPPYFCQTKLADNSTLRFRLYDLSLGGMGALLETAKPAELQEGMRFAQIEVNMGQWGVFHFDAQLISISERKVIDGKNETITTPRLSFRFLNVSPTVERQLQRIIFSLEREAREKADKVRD

In the case of `Nc1nc2c(c(=O)[nH]1)CC=N2` [7-deazaguanine], the “binding by 17-90 RNA” value with 17-90 RNA is given as “bound with only a slightly better affinity”.

For the compound `Nc1nc2c(ncn2[C@@H]2O[C@@H]3COP(=O)(O)O[C@H]4[C@@H](O)[C@H](n5cnc6c(=O)[nH]c(N)nc65)O[C@@H]4COP(=O)(O)O[C@H]3[C@H]2O)c(=O)[nH]1` [cyclic di-GMP], the Kd was about 1 nM in [1] (in-line probing with various cyclic di-GMP concentrations, read-out: apparent dissociation constant (KD)) and 840 nM in series [3]. For the same compound, in series [2], the “rate constant for spontaneous cleavage” value is 3.2e-06 min⁻¹.

As to `N[C@@H](CCS)C(=O)O` [homocysteine], the “modulation of the RNA structure” value with 68 metH RNA [4] was “neither homocysteine nor methionine cause any modulation of the RNA structure”.

`C[S+](CC[C@H](N)C(=O)[O-])C[C@H]1O[C@@H](n2cnc3c(N)ncnc32)[C@H](O)[C@@H]1O` (stereo partly drawn) [SAM, S-adenosyl-L-methionine]: the “apparent KD relative to apparent KD for SAH” value with 68 metH RNA [4] (in-line probing, commercial SAM (contains ~10% SAH)) is reported as “no more than 10 fold”. In the series on 68 metH RNA [5] (SAH versus SAM), the “discrimination against SAM” value was ~3 orders of magnitude. The Kd at 68 metH RNA [5] (equilibrium dialysis, 25 μM 68 metH RNA) was at least 25000 nM; in [6] (in-line probing, 132 Sc RNA, read-out: KD [compound] (nM) SAM-IV), 150 nM and ~150 nM; at SAM-II aptamer 156 metA [8] it was about 1000 nM; in series [9], 5 nM. The “KD [compound]/ KD [SAM] SAM-IV” value in series [6] (ratio of the KD for the compound to that for SAM) came out at 1. Also, the “KD [compound]/ KD [SAM] SAM-I” value in series [7] is listed as 1.

As for `CSCC[C@H](N)C(=O)O` [methionine, L-methionine], the “modulation of the RNA structure” value in the series with 68 metH RNA [4] is reported as “neither homocysteine nor methionine cause any modulation of the RNA structure”.

For `C[S+](CC[C@H](N)C(=O)O)C[C@H]1O[C@@H](n2cnc3c(N)ncnc32)[C@H](O)[C@@H]1O` (stereo partly drawn) [[^3H]SAM, S-(5′-adenosyl)-L-methionine-(methyl-3H)], the “shift of the distribution of [3H]SAM to the RNA chamber” value is listed as “no shift” in the series on 68 metH RNA [5] (10 µM RNA, 100 nM [3H]SAM) and about 1.5 fold in the series on SAM-II aptamer 156 metA [10].

For `[Na+].[Na+].[O]=[Mo](=[O])([O-])[O-]` [sodium molybdate], the “reporter gene expression of WT 149 moaA reporter fusion” value in [11] is reported as “expression is repressed”.

For `Nc1ncnc2c1ncn2[C@@H]1O[C@H](CSC[C@H](N)C(=O)O)[C@@H](O)[C@H]1O` [SAC, S-adenosylcysteine], the “loss of affinity relative to SAH” value in the series with 68 metH RNA [4] (in-line probing) was “only a modest loss of affinity”.

On to `Nc1ncc2[nH]cnc2n1` [2-aminopurine], for which, in the series on 17-90 RNA, the “binding by 17-90 RNA” value was “no binding is detected”.

As to `N#CC1C=Nc2nc(N)[nH]c(=O)c21` (stereo not drawn) [preQ0, 7-cyano-7-deazaguanine], the Kd at 17-90 RNA was about 500 nM.

`CN(C)Cc1c[nH]c2nc(N)[nH]c(=O)c12` [dimethylaminomethyl analog, 7-(N,N″-dimethylaminomethyl)-7-deazaguanine]: the Kd on 17-90 RNA was about 500 nM.

Turning to `Cn1cnc2nc(N)[nH]c(=O)c21` [7-methylguanine], the “binding by 17-90 RNA” value in the series with 17-90 RNA was “lack of 7-methylguanine binding”.

In the case of `[Na+].[Na+].[O]=[W](=[O])([O-])[O-]` [sodium tungstate], the “reporter gene expression of WT 149 moaA reporter fusion” value in series [11] was “becomes derepressed”.

For the compound `Nc1nc2c(ncn2[C@@H]2O[C@H](COP(=O)(O)O)[C@@H](O)[C@H]2O)c(=O)[nH]1` [pG], the “binding by the aptamer” value in series [1] (concentration five orders of magnitude higher than the KD for cyclic di-GMP) is on record as “not bound by the aptamer”.
